This is an account of results in patent EP2695891B1, “OCTAPEPTIDE, RADIOPHARMACEUTICAL AGENT BASED THEREON AND METHOD FOR DIAGNOSING TUMORS” (Aktsionernoe Obschestvo "Pharm-Sintez", priority 2011, dated 2018).

SMILES strings stand for the structures. Like-named read-outs stand apart in the source and are kept apart here.

Series [1] relates to B16 melanoma. The experiment in a line: potency distribution in mice with tangled B16 melanoma after IV administration (direct radiometry of organs and tissues). Particulars: for Blood: mice with B16 melanoma; for Urinary bladder: full urinary bladder.
Protocol: (§1) In vivo experiments were conducted using laboratory female mice (F1 CBAxC57B1 hybrids, 18-20g). The animals were obtained from the brooder of the Biomedical Technology Research Centre at the Russian Academy of Medical Sciences in Andreevka. Pigmented B16 mice melanoma was tangled. B16 melanoma cells suspension was administered SC in aseptic conditions. Tumour growth was investigated visually. The animals were enrolled into the experiment 9-12 days after the inoculation, when the tumour diameter was 8-12cm.
(§2) During the experiment the animals were housed in standard conditions (special room, recommended food, free access to fresh water, natural lighting).
(§3) Urinary bladder filling was achieved by suturing the outer urethral orifice. The radioactivity in the sampled organs and tissues was measured by the direct radiometry method. 5 experiments were conducted, at least 3 animals were used for each experimental point.
Series [2] in a line: in vivo. To be noted: female, F1 CBAxC57B1 hybrids, mouse, iv, total radioactivity.
Protocol: as §1, §2, §3
Series [3] relates to B16 melanoma. To be noted: mouse, in vivo.
Protocol: as §1, §2, §3
Series [4] can be described thus: potency distribution in mice with tangled B16 melanoma after IV administration (direct radiometry of organs and tissues). To be noted: female, F1 CBAxC57B1 hybrids, mouse, tumour and muscle, iv, total radioactivity.
Protocol: as §1, §2, §3

In the case of `C[C@@H](O)[C@H](NC(=O)[C@@H]1CSSC[C@H](NC(=O)[C@@H](Cc2ccccc2)NC(=O)CN2CCN(CC(=O)O)CCN(CC(=O)O)CCN(CC(=O)O)CC2)C(=O)N[C@@H](Cc2ccc(O)cc2)C(=O)N[C@H](Cc2c[nH]c3ccccc23)C(=O)N[C@@H](CCCCN)C(=O)N[C@@H]([C@@H](C)O)C(=O)N1)C(=O)O` [DE, marked ^68Ga, metal not drawn, reference compound], in series [1] (30 min after IV administration), the Kidneys is 1.6 ± 0.6 % of the administered dose, the Liver is 2.8 ± 1.5 % of the administered dose, the Muscle worked out at 0.6 ± 0.04 %/g and the Tumour came to 1.0 ± 0.2 %/g. Further, the Blood in series [1] (30 min after IV administration) is 2.6 ± 0.5 % of the administered dose. Moreover, in series [1] (60 min after IV administration), the Kidneys was 1.6 ± 0.6 % of the administered dose, the Liver is on record as 2.8 ± 0.5 % of the administered dose, the Muscle is 0.5 ± 0.04 %/g and the Tumour stood at 0.5 ± 0.24 %/g. For the same molecule, the Blood in series [1] (60 min after IV administration) is listed as 2.6 ± 0.6 % of the administered dose.
For `C[C@@H](O)[C@H](NC(=O)[C@@H]1CSSC[C@H](NC(=O)[C@H](CCCCN)NC(=O)CN2CCN(CC(=O)O)CCN(CC(=O)O)CCN(CC(=O)O)CC2)C(=O)N[C@@H](Cc2ccc(O)cc2)C(=O)N[C@H](Cc2c[nH]c3ccccc23)C(=O)N[C@@H](CCCCN)C(=O)N[C@@H]([C@@H](C)O)C(=O)N1)C(=O)O` [Compound 1a], in series [2], the tissue to tissue ratio at 1 h came out at 7.5. Also, in series [3], the “accumulation in tumour as compared to ^68Ga-marked DE” value was “larger”, the “blood clearance as compared to ^68Ga-marked DE” value is recorded as “faster blood clearance” and the “renal clearance as compared to ^68Ga-marked DE” value is on record as “faster renal clearance”.
On to `C[C@@H](O)[C@H](NC(=O)[C@@H]1CSSC[C@H](NC(=O)[C@@H](N)CCCCNC(=O)CN2CCN(CC(=O)O)CCN(CC(=O)O)CCN(CC(=O)O)CC2)C(=O)N[C@@H](Cc2ccc(O)cc2)C(=O)N[C@H](Cc2c[nH]c3ccccc23)C(=O)N[C@@H](CCCCN)C(=O)N[C@@H]([C@@H](C)O)C(=O)N1)C(=O)O` [Compound 1b], for which the “accumulation in tumour as compared to ^68Ga-marked comparison substance” value in series [1] (60 min after administration, fold higher than DE) is on record as 2.4 times. In addition, in series [1] (^68Ga-marked, in words), the “accumulation in tumour as compared to ^68Ga-marked DE” value is given as “larger”, the “blood clearance as compared to ^68Ga-marked DE” value is “faster blood clearance” and the “renal clearance as compared to ^68Ga-marked DE” value is recorded as “faster renal clearance”. In addition, the “ratio of accumulation in tumour and muscle as compared to DE” value in series [1] (both in 30 and in 60 minutes after administration, in words) was “higher”. Also, the tissue to tissue ratio at 1 h in series [4] came to 20.
For `C[C@@H](O)[C@H](NC(=O)[C@@H]1CSSC[C@H](NC(=O)[C@@H](N)CCCCNC(=O)CN2CCN(CC(=O)O)CCN(CC(=O)O)CCN(CC(=O)O)CC2)C(=O)N[C@@H](Cc2ccc(O)cc2)C(=O)N[C@H](Cc2c[nH]c3ccccc23)C(=O)N[C@@H](CCCCN)C(=O)N[C@@H]([C@@H](C)O)C(=O)N1)C(=O)O` [1b, marked ^68Ga, metal not drawn], in series [1] (30 min after IV administration), the Kidneys was 3.4 ± 0.3 % of the administered dose, the Liver is 1.8 ± 0.7 % of the administered dose, the Muscle was found to be 0.6 ± 0.1 %/g and the Tumour was found to be 2.5 ± 0.7 %/g. Further, in series [1] (30 min after IV administration), the Urinary bladder is on record as 53.4 ± 7.7 % of the administered dose and the Blood is recorded as 2.4 ± 0.4 % of the administered dose. Further, in series [1] (60 min after IV administration), the Kidneys is 5.4 ± 0.6 % of the administered dose, the Liver was 1.1 ± 0.1 % of the administered dose, the Muscle is on record as 0.06 ± 0.01 %/g and the Tumour was found to be 1.2 ± 0.2 %/g. In series [1] (60 min after IV administration), the Urinary bladder is reported as 35.5 ± 3.1 % of the administered dose and the Blood is 0.5 ± 0.07 % of the administered dose. In addition, the tissue to tissue ratio at 0.5 h in series [4] was 4.2.
As for `C[C@@H](O)[C@H](NC(=O)[C@@H]1CSSC[C@H](NC(=O)[C@H](CCCCN)NC(=O)CN2CCN(CC(=O)O)CCN(CC(=O)O)CCN(CC(=O)O)CC2)C(=O)N[C@@H](Cc2ccc(O)cc2)C(=O)N[C@H](Cc2c[nH]c3ccccc23)C(=O)N[C@@H](CCCCN)C(=O)N[C@@H]([C@@H](C)O)C(=O)N1)C(=O)O` [1a, marked ^68Ga, metal not drawn], the tissue to tissue ratio at 0.5 h in series [2] is 2.4.
